From patent publication US20150258107A1, “METHODS AND COMPOSITIONS FOR TREATING DEPRESSION” (DemeRx, Inc., priority 2014, published 2015)

How the values were obtained:
[1] = system: opioid-dependent participants; assay: Treatment emergent adverse events in opioid-dependent participants; format: in vivo, human
Method: The efficacy of noribogaine in humans was evaluated in opioid-dependent participants in a randomized, placebo-controlled, double-blind trial. […] See U.S. application Ser. No. 14/214,157, filed Mar. 14, 2014 and Ser. No. 14/346,655, filed Mar. 21, 2014, which are incorporated herein by reference in their entireties.
Three cohorts of nine (9) subjects (6 administered noribogaine and 3 administered placebo in each cohort) were evaluated for tolerability, pharmacokinetics, and efficacy. Cohort 1 received a single dose of 60 mg noribogaine or placebo. Cohort 2 received a single dose of 120 mg noribogaine or placebo. Cohort 3 received a single dose of 180 mg noribogaine or placebo. […] Headaches were frequent in the placebo and 60 mg noribogaine treatment groups, but were attenuated in the 120 mg and 180 mg dose groups.

[2] = Single dose (acute oral) toxicity/TK study in dogs; format: in vivo, dog; details: dog, in vivo; single oral dose
dogs = assay: Single dose (acute oral) toxicity/TK study in dogs; format: in vivo, dog

**Q.** What does the source list for `CC[C@H]1CC2C[C@H]3c4[nH]c5ccc(O)cc5c4CCN(C2)C13` [noribogaine]?
**A.** TEAE: Catheter Site Infection ([1]; 60 mg (N = 6)): 0; TEAE: Catheter Site Pain ([1]; 60 mg (N = 6)): 0; TEAE: Catheter Site Related Reaction ([1]; 60 mg (N = 6)): 0; TEAE: Cellulitis ([1]; 60 mg (N = 6)): 0; TEAE: Diarrhoea ([1]; 60 mg (N = 6)): 0; TEAE: Dry Mouth ([1]; 60 mg (N = 6)): 0; TEAE: Ear and Labyrinth Disorders ([1]; 60 mg (N = 6)): 0; TEAE: Epistaxis ([1]; 60 mg (N = 6)): 0; TEAE: Euphoric Mood ([1]; 60 mg (N = 6)): 0; TEAE: General Disorders and Administration Site Conditions ([1]; 60 mg (N = 6)): 0; TEAE: Hyperaesthesia ([1]; 60 mg (N = 6)): 0; TEAE: Infections and Infestations ([1]; 60 mg (N = 6)): 0; TEAE: Limb Discomfort ([1]; 60 mg (N = 6)): 0; TEAE: Malaise ([1]; 60 mg (N = 6)): 0; TEAE: Nausea ([1]; 60 mg (N = 6)): 0; TEAE: Oropharyngeal Pain ([1]; 60 mg (N = 6)): 0; TEAE: Pseudoparalysis ([1]; 60 mg (N = 6)): 0; TEAE: Respiratory, Thoracic and Mediastinal Disorders ([1]; 60 mg (N = 6)): 0; TEAE: Rhinorrhoea ([1]; 60 mg (N = 6)): 0; TEAE: Skin Discomfort ([1]; 60 mg (N = 6)): 0; TEAE: Skin Irritation ([1]; 60 mg (N = 6)): 0; TEAE: Skin and Subcutaneous Tissue Disorders ([1]; 60 mg (N = 6)): 0; TEAE: Somnoience ([1]; 60 mg (N = 6)): 0; TEAE: Tinnitus ([1]; 60 mg (N = 6)): 0; TEAE: Tremor ([1]; 60 mg (N = 6)): 0; TEAE: Urinary Tract Infection ([1]; 60 mg (N = 6)): 0; TEAE: Vomiting ([1]; 60 mg (N = 6)): 0; TEAE: Back Pain ([1]; 120 mg (N = 6)): 0; TEAE: Catheter Site Infection ([1]; 120 mg (N = 6)): 0; TEAE: Catheter Site Related Reaction ([1]; 120 mg (N = 6)): 0; TEAE: Depressed Mood ([1]; 120 mg (N = 6)): 0; TEAE: Dry Eye ([1]; 120 mg (N = 6)): 0; TEAE: Dyspepsia ([1]; 120 mg (N = 6)): 0; TEAE: Euphoric Mood ([1]; 120 mg (N = 6)): 0; TEAE: Limb Discomfort ([1]; 120 mg (N = 6)): 0; TEAE: Malaise ([1]; 120 mg (N = 6)): 0; TEAE: Musculoskeletal and Connective Tissue Disorders ([1]; 120 mg (N = 6)): 0; TEAE: Psychiatric Disorders ([1]; 120 mg (N = 6)): 0; TEAE: Somnoience ([1]; 120 mg (N = 6)): 0; TEAE: Urinary Tract Infection ([1]; 120 mg (N = 6)): 0; TEAE: Catheter Site Infection ([1]; 180 mg (N = 6)): 0; TEAE: Catheter Site Pain ([1]; 180 mg (N = 6)): 0; TEAE: Depressed Mood ([1]; 180 mg (N = 6)): 0; TEAE: Diarrhoea ([1]; 180 mg (N = 6)): 0; TEAE: Dry Eye ([1]; 180 mg (N = 6)): 0; TEAE: Dyspepsia ([1]; 180 mg (N = 6)): 0; TEAE: Ear and Labyrinth Disorders ([1]; 180 mg (N = 6)): 0; TEAE: Epistaxis ([1]; 180 mg (N = 6)): 0; TEAE: Euphoric Mood ([1]; 180 mg (N = 6)): 0; TEAE: Hyperaesthesia ([1]; 180 mg (N = 6)): 0; TEAE: Malaise ([1]; 180 mg (N = 6)): 0; TEAE: Pseudoparalysis ([1]; 180 mg (N = 6)): 0; TEAE: Psychiatric Disorders ([1]; 180 mg (N = 6)): 0; TEAE: Respiratory, Thoracic and Mediastinal Disorders ([1]; 180 mg (N = 6)): 0; TEAE: Rhinorrhoea ([1]; 180 mg (N = 6)): 0; TEAE: Skin Discomfort ([1]; 180 mg (N = 6)): 0; TEAE: Skin Irritation ([1]; 180 mg (N = 6)): 0; TEAE: Skin and Subcutaneous Tissue Disorders ([1]; 180 mg (N = 6)): 0; TEAE: Somnoience ([1]; 180 mg (N = 6)): 0; TEAE: Tinnitus ([1]; 180 mg (N = 6)): 0; TEAE: Tremor ([1]; 180 mg (N = 6)): 0; Adverse effects incl. hallucinatory effects ([1]; single dose 60, 120 or 180 mg): Few adverse effects of noribogaine were observed in any of the participants, including no hallucinatory effects; NOAEL [2]: 5 mg/kg; Findings at the NOAEL dose (dogs; 5 mg/kg): only transient reduction in food consumption in one dog; Clinical signs (dogs; 10 mg/kg): Convulsions and other CNS-related clinical signs; Onset of clinical signs after dosing (dogs; 10 mg/kg): 20 min; Mortality (dogs; oral doses of 5 (n=2) or 10 (n=2) mg/kg): no mortality occurred
